Laboratory results as given in ChEMBL document CHEMBL1132360, “N-Substituted (2,3-dihydro-1,4-benzodioxin-2-yl)methylamine derivatives as D(2) antagonists/5-HT(1A) partial agonists with potential as atypical antipsychotic agents” (J Med Chem, 1999).

Key:
[1] = The compound was tested for binding affinity against MCB receptor
[2] = target: 5-hydroxytryptamine receptor 6 (Rattus norvegicus, UniProt P31388); assay: The compound was tested for binding affinity against 5-hydroxytryptamine 6 receptor
[3] = target: Serotonin 4 (5-HT4) receptor (Sus scrofa, UniProt Q6Q253); assay: The compound was tested for binding affinity against 5-hydroxytryptamine 4 receptor
D(1B) dopamine receptor = D(1B) dopamine receptor (Homo sapiens, UniProt P21918); assay: The compound was tested for binding affinity against human Dopamine receptor D5
[4] = target: T1, Alpha-2A adrenergic receptor (Rattus norvegicus, UniProt P22909); assay: The compound was tested for binding affinity against alpha-2D adrenergic receptor
T1 sequence (P22909 whole entry): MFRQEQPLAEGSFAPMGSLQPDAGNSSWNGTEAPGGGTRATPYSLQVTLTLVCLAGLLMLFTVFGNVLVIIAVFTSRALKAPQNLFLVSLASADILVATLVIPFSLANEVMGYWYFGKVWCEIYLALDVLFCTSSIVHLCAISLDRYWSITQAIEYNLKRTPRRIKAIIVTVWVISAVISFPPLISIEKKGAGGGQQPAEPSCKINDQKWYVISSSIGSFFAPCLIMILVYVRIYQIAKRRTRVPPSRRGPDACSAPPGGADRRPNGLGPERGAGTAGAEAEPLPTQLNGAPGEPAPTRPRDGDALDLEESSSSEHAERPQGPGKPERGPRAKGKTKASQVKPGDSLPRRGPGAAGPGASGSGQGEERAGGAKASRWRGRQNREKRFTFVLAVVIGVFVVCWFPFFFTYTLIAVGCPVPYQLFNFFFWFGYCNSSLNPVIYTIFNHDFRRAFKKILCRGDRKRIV

Histamine H1 receptor = Histamine H1 receptor (Rattus norvegicus, UniProt P31390); assay: The compound was tested for binding affinity against H1 receptor
[5] = target: T2, 5-hydroxytryptamine receptor 1A (Rattus norvegicus, UniProt P19327); assay: Binding affinity towards 5-hydroxytryptamine 1A receptor from rat brain using [3H]-8-OH-DPAT as radioligand
T2 sequence (P19327 whole entry): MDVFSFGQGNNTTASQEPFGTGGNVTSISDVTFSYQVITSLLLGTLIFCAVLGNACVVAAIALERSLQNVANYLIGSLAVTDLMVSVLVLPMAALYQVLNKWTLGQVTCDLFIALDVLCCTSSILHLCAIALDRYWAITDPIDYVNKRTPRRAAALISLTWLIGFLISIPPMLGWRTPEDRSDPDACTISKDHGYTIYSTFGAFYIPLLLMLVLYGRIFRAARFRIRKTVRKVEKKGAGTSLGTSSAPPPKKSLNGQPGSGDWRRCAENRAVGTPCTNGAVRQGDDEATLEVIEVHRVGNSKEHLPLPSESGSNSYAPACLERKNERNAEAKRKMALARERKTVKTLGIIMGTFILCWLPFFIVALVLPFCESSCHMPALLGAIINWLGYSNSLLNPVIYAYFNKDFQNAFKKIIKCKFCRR

[6] = target: 5-hydroxytryptamine receptor 2A (Rattus norvegicus, UniProt P14842); assay: The compound was tested for binding affinity against 5-hydroxytryptamine 2A receptor
Chain of 5-hydroxytryptamine receptor 2A (P14842 whole entry): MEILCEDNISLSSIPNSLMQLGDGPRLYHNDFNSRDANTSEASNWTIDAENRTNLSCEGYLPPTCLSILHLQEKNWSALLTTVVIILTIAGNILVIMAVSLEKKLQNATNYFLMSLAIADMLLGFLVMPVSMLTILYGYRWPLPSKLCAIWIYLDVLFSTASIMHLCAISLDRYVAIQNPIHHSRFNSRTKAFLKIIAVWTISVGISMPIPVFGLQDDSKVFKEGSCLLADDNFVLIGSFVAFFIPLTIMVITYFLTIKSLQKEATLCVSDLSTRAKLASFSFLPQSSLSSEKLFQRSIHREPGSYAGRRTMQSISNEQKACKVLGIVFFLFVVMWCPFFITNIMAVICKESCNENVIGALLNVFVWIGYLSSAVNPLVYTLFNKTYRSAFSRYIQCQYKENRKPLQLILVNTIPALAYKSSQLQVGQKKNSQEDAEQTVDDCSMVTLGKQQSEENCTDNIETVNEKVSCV

Chain of Serotonin 4 (5-HT4) receptor (Q6Q253 whole entry): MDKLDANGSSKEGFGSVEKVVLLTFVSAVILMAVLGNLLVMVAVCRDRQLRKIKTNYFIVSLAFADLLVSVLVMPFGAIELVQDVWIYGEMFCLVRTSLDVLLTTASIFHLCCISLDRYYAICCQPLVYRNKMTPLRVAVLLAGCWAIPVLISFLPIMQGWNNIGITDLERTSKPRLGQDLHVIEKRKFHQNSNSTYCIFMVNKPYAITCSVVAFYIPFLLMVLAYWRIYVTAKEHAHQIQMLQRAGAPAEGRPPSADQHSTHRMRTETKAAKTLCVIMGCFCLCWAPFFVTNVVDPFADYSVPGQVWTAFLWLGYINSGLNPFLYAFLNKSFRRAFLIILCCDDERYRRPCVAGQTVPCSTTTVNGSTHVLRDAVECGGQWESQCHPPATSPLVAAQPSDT
Chain of 5-hydroxytryptamine receptor 6 (P31388 whole entry): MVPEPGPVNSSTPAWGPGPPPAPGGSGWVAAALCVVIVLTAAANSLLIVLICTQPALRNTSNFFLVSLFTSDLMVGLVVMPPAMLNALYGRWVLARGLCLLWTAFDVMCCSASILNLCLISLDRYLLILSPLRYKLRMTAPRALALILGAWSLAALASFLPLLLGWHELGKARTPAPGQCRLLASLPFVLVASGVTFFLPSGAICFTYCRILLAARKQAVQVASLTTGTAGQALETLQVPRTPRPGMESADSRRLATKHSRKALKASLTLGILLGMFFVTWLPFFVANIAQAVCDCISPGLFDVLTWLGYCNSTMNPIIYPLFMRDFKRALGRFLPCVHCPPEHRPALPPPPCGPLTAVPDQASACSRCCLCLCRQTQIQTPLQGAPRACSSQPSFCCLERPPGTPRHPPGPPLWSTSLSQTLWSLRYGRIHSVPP
Chain of D(1B) dopamine receptor (P21918 whole entry): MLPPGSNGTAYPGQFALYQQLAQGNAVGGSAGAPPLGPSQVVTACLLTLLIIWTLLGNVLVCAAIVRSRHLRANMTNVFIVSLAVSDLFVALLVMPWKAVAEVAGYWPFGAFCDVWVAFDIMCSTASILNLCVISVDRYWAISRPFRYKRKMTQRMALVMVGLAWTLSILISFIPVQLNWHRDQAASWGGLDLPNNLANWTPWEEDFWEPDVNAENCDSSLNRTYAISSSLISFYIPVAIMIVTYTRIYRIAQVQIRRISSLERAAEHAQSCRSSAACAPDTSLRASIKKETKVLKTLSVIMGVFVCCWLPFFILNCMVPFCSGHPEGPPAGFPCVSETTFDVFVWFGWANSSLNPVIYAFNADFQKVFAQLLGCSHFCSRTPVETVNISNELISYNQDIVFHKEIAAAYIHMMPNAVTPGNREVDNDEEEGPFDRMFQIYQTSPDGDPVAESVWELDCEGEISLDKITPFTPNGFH
Chain of Histamine H1 receptor (P31390 whole entry): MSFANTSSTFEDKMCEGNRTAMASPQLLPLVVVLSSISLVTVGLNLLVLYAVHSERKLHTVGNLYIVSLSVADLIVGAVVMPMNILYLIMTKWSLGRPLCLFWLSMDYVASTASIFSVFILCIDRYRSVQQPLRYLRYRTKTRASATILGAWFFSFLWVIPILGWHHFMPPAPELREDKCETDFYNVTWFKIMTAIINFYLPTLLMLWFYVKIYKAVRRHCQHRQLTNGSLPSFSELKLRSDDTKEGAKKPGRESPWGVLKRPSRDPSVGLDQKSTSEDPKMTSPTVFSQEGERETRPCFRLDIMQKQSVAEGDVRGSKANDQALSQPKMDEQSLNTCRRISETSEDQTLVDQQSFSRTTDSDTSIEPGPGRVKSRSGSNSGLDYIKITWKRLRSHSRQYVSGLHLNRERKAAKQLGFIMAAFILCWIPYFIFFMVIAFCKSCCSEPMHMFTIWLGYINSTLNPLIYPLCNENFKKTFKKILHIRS

**Q.** Which Ki [1] does the source give for COc1ccccc1N1CCC(CNCC2COc3ccc(Cl)cc3O2)CC1 (stereo not drawn) here?
**A.** > 1000 nM

**Q.** What about the Ki [2] of the same molecule?
**A.** > 500 nM

**Q.** And the Ki [3]?
**A.** > 1000 nM

**Q.** And the Ki (D(1B) dopamine receptor)?
**A.** > 1000 nM

**Q.** What about the Ki [4] of the same molecule?
**A.** > 500 nM

**Q.** And the Ki (Histamine H1 receptor)?
**A.** > 1000 nM

**Q.** And the Ki [5]?
**A.** 22 nM

**Q.** What about the Ki [6] of the same molecule?
**A.** > 500 nM
